Experimental findings from BindingDB's records for doi:10.1124/jpet.105.086363 (Wyeth, 2005) are described below.

One assay has as its target D(2) dopamine receptor (Homo sapiens, UniProt P14416).
The target in assay [1] is T1, Alpha-1A adrenergic receptor (Rattus norvegicus, UniProt P43140).
T1 sequence (P43140 whole entry): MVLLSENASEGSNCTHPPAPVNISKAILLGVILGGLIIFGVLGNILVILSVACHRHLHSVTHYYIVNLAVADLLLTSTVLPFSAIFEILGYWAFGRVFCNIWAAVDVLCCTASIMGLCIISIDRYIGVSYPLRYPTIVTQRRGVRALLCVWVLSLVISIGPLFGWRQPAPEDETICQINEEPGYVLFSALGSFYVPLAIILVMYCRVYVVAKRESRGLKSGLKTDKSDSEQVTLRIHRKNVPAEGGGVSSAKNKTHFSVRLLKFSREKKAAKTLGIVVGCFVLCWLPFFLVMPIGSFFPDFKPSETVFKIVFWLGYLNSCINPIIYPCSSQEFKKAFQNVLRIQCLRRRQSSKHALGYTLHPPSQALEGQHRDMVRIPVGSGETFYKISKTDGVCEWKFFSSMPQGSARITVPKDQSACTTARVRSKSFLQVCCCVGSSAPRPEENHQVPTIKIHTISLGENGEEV

The target of a further assay is D(3) dopamine receptor (Homo sapiens, UniProt P35462).
Chain of D(3) dopamine receptor (P35462 as listed by the source): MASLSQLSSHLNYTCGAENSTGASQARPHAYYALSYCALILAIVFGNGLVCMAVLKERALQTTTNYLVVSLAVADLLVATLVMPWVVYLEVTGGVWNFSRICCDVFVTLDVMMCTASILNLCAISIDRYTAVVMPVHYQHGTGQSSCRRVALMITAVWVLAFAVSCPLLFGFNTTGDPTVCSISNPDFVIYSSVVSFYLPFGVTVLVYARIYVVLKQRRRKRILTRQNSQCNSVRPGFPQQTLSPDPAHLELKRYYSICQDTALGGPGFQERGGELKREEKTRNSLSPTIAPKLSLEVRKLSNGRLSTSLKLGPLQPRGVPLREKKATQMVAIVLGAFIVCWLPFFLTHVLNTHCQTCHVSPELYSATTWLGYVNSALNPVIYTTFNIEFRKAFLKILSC
The target in the next assay is T2, D(4) dopamine receptor (Homo sapiens, UniProt P21917).
T2 sequence (P21917 whole entry): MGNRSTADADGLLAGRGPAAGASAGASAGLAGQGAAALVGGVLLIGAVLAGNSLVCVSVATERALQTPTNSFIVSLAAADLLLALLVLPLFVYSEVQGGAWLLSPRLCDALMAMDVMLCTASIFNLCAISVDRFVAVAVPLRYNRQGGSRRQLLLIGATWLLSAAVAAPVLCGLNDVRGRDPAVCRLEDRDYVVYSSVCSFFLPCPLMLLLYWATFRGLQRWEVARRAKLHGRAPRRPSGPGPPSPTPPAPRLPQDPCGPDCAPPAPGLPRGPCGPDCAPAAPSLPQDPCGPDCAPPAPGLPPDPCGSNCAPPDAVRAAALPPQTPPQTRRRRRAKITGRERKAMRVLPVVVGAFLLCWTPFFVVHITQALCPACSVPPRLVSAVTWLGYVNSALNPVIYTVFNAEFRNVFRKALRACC

The target in assay [2] is T3, 5-hydroxytryptamine receptor 1A (Homo sapiens, UniProt P08908).
T3 sequence (P08908 whole entry): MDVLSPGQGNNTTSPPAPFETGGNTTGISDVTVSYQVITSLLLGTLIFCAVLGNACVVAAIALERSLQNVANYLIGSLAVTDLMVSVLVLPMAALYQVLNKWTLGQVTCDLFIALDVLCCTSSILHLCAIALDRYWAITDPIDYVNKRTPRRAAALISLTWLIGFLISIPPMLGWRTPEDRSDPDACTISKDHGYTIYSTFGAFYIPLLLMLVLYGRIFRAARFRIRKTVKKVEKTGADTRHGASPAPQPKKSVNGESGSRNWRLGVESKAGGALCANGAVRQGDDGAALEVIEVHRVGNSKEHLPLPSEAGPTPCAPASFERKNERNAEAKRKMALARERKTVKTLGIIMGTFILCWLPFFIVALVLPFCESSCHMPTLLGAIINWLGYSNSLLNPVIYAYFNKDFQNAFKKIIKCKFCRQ

Chain of D(2) dopamine receptor (P14416 whole entry): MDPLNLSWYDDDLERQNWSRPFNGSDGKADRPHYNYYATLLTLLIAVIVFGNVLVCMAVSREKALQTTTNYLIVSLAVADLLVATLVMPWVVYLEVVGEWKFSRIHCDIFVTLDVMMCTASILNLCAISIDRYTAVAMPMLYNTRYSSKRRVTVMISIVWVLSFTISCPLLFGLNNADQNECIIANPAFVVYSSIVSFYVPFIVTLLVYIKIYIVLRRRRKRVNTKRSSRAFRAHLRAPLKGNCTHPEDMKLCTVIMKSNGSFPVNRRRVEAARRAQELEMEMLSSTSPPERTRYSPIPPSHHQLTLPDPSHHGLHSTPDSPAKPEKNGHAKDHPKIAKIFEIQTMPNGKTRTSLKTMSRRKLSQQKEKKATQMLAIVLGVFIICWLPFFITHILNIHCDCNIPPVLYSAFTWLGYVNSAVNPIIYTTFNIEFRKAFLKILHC

On to `C[C@H](CN(C(=O)c1ccc(C#N)cc1)c1ccccn1)N1CCN(c2cccc3c2OCCO3)CC1`, for which the Ki on D(2) dopamine receptor is 1550 nM; in assay [1] it was 248 nM; at D(3) dopamine receptor it was 320 nM; at D(4) dopamine receptor it was 98 nM; in assay [2], 4.5 nM.

One may read the Ki as a dissociation constant, usually derived from enzyme kinetics or from competition with a known ligand. Higher therefore signals a looser hold on the target.
